In patent US11297838B2, “Pesticidal compositions and methods” (CORTEVA AGRISCIENCE LLC, priority 2018, dated 2022):
Read-outs that look alike come from different tables or passages of the source.

Legend:
[1] = test system: Beet Armyworm (Spodoptera exigua, LAPHEG); experiment: Insecticidal test for beet armyworm (BAW), 128-well diet tray assay; format: in vivo; conditions: 168 h, read-out: BAW rating, % Control (or Mortality)
Experimental: Insecticidal Test for Beet Armyworm (Spodoptera exigua, LAPHEG) (“BAW”)
Bioassays on beet armyworm (BAW; Spodoptera exigua: Lepidoptera) are conducted using a 128-well diet tray assay. One to five second instar BAW larvae are placed in each well (3 mL) of the diet tray that had been previously filled with 1 mL of artificial diet to which 50 μg/cm^2 of the test compound (dissolved in 50 μL of 90:10 acetone-water mixture) had been applied (to each of eight wells) and then allowed to dry. Trays are covered with a clear self-adhesive cover, vented to allow gas exchange, and held at 25° C., 14:10 light-dark for five to seven days. Percent mortality is recorded for the larvae in each well; activity in the eight wells is then averaged. In the reporting of the results, the “BAW & CL Rating Table” was used.

[2] = test system: Cabbage Looper (Trichloplusia ni, TRIPNI); experiment: Insecticidal test for cabbage looper (CL), 128-well diet tray assay; format: in vivo; conditions: Trichoplusia ni, 168 h, read-out: CL rating, % Control (or Mortality)
Experimental: Insecticidal Test for Cabbage Looper (Trichloplusia ni, TRIPNI) (“CL”)
Bioassays on cabbage looper (CL; Trichloplusia ni: Lepidoptera) are conducted using a 128-well diet tray assay. One to five second instar CL larvae are placed in each well (3 mL) of the diet tray that had been previously filled with 1 mL of artificial diet to which 50 μg/cm^2 of the test compound (dissolved in 50 μL of 90:10 acetone-water mixture) had been applied (to each of eight wells) and then allowed to dry. Trays are covered with a clear self-adhesive cover, vented to allow gas exchange, and held at 25° C., 14:10 light-dark for five to seven days. Percent mortality is recorded for the larvae in each well; activity in the eight wells is then averaged. In the reporting of the results, the “BAW & CL Rating Table” was used.

[3] = 50 μg/cm^2 on artificial diet, second instar larvae, five to seven days, 25° C.

| Compound | mortality at 50 µg/cm2 [1, 3] [%] | mortality at 50 µg/cm2 [2, 3] [%] | mortality at 50 µg/cm2 [1] [%] | mortality at 50 µg/cm2 [2] [%] |
| --- | --- | --- | --- | --- |
| Cc1ccc(C(C)C)c(N2C(=O)CS/C2=N\C(=O)OCCc2ccc(-c3ncn(-c4ccc(OC(F)(F)F)cc4)n3)cc2)c1 [A1, 4-(1-(4-(trifluoromethoxy)phenyl)-1H-1,2,4-triazol-3-yl)phenethyl (Z)-(3-(2-isopropyl-5-methylphenyl)-4-oxothiazolidin-2-ylidene)carbamate] | 50 to 100 | 50 to 100 |  |  |
| Cc1ccc(C(C)C)c(N2C(=O)CS/C2=N\C(=O)Oc2ccc(-c3ncn(-c4ccc(OC(F)(F)F)cc4)n3)cc2)c1 [A3, 4-(1-(4-(Trifluoromethoxy)phenyl)-1H-1,2,4-triazol-3-yl)phenyl (Z)-(3-(2-isopropyl-5-methylphenyl)-4-oxothiazolidin-2-ylidene)carbamate] |  |  | 0 | 0 |
| Cc1ccc(C(C)C)c(N2C(=O)CS/C2=N\C(=O)OCC(F)(F)c2ccc(-c3ncn(-c4ccc(OC(F)(F)F)cc4)n3)cc2)c1 [A4, 2,2-difluoro-2-(4-(1-(4-(trifluoromethoxy)phenyl)-1H-1,2,4-triazol-3-yl)phenyl)ethyl (Z)-(3-(2-isopropyl-5-methylphenyl)-4-oxothiazolidin-2-ylidene)carbamate] | 50 to 100 | 50 to 100 |  |  |
| Cc1ccc(C(C)C)c(N2C(=O)CS/C2=N\C(=O)OCC(F)c2ccc(-c3ncn(-c4ccc(OC(F)(F)F)cc4)n3)cc2)c1 (stereo not shown) [A20, 2-fluoro-2-(4-(1-(4-(trifluoromethoxy)phenyl)-1H-1,2,4-triazol-3-yl)phenyl)ethyl (Z)-(3-(2-isopropyl-5-methylphenyl)-4-oxothiazolidin-2-ylidene)carbamate] | 50 to 100 | 50 to 100 |  |  |
| Cc1ccc(OCC(F)(F)F)c(N2C(=O)CS/C2=N\C(=O)OCC(F)c2ccc(-c3ncn(-c4ccc(OC(F)(F)F)cc4)n3)cc2)c1 (stereo not shown) [A21, 2-Fluoro-2-(4-(1-(4-(trifluoromethoxy)phenyl)-1H-1,2,4-triazol-3-yl)phenyl)ethyl (Z)-(3-(5-methyl-2-(2,2,2-trifluoroethoxy)phenyl)-4-oxothiazolidin-2-ylidene)carbamate] | 50 to 100 | 50 to 100 |  |  |
| O=C(/N=C1\SCC(=O)N1c1cc(Cl)ccc1OCC(F)(F)F)OCC(F)c1ccc(-c2ncn(-c3ccc(OC(F)(F)F)cc3)n2)cc1 (stereo not shown) [A22, 2-Fluoro-2-(4-(1-(4-(trifluoromethoxy)phenyl)-1H-1,2,4-triazol-3-yl)phenyl)ethyl (Z)-(3-(5-chloro-2-(2,2,2-trifluoroethoxy)phenyl)-4-oxothiazolidin-2-ylidene)carbamate] | 50 to 100 | 50 to 100 |  |  |
| CC(C)c1ccc(Cl)cc1N1C(=O)CS/C1=N\C(=O)OCC(F)c1ccc(-c2ncn(-c3ccc(OC(F)(F)F)cc3)n2)cc1 (stereo not shown) [A23, 2-Fluoro-2-(4-(1-(4-(trifluoromethoxy)phenyl)-1H-1,2,4-triazol-3-yl)phenyl)ethyl (Z)-(3-(5-chloro-2-isopropylphenyl)-4-oxothiazolidin-2-ylidene)carbamate] | 50 to 100 | 50 to 100 |  |  |
| CC(C)c1ccccc1N1C(=O)CS/C1=N\C(=O)OCC(F)c1ccc(-c2ncn(-c3ccc(OC(F)(F)C(F)(F)F)cc3)n2)cc1 (stereo not shown) [A24, 2-Fluoro-2-(4-(1-(4-(perfluoroethoxy)phenyl)-1H-1,2,4-triazol-3-yl)phenyl)ethyl (Z)-(3-(2-isopropylphenyl)-4-oxothiazolidin-2-ylidene)carbamate] | 50 to 100 | 50 to 100 |  |  |
| CC(C)c1ccc(Cl)cc1N1C(=O)CS/C1=N\C(=O)OCC(F)c1ccc(-c2ncn(-c3ccc(OC(F)(F)C(F)(F)F)cc3)n2)cc1 (stereo not shown) [A25, 2-Fluoro-2-(4-(1-(4-(perfluoroethoxy)phenyl)-1H-1,2,4-triazol-3-yl)phenyl)ethyl (Z)-(3-(5-chloro-2-isopropylphenyl)-4-oxothiazolidin-2-ylidene)carbamate] | 50 to 100 | 0 to 50 |  |  |
| COCc1ccccc1N1C(=O)CS/C1=N\C(=O)OCCc1ccc(-c2ncn(-c3ccc(OC(F)(F)F)cc3)n2)cc1 [A27, 4-(1-(4-(trifluoromethoxy)phenyl)-1H-1,2,4-triazol-3-yl)phenethyl (Z)-(3-(2-(methoxymethyl)phenyl)-4-oxothiazolidin-2-ylidene)carbamate] | 50 to 100 | 50 to 100 |  |  |
| CCC(C)c1ccc(OC)cc1N1C(=O)CS/C1=N\C(=O)OCCc1ccc(-c2ncn(-c3ccc(OC(F)(F)F)cc3)n2)cc1 (stereo not shown) [A28, 4-(1-(4-(Trifluoromethoxy)phenyl)-1H-1,2,4-triazol-3-yl)phenethyl (Z)-(3-(2-(sec-butyl)-5-methoxyphenyl)-4-oxothiazolidin-2-ylidene)carbamate] | 50 to 100 | 50 to 100 |  |  |
| O=C(/N=C1\SCC(=O)N1c1cc(Cl)ccc1OC(F)(F)F)OCCc1ccc(-c2ncn(-c3ccc(OC(F)(F)F)cc3)n2)cc1 [A29, 4-(1-(4-(Trifluoromethoxy)phenyl)-1H-1,2,4-triazol-3-yl)phenethyl (Z)-(3-(5-chloro-2-(trifluoromethoxy)phenyl)-4-oxothiazolidin-2-ylidene)carbamate] | 50 to 100 | 50 to 100 |  |  |
| O=C(/N=C1\SCC(=O)N1c1cc(Cl)ccc1OCC(F)(F)F)OCCc1ccc(-c2ncn(-c3ccc(OC(F)(F)F)cc3)n2)cc1 [A30, 4-(1-(4-(Trifluoromethoxy)phenyl)-1H-1,2,4-triazol-3-yl)phenethyl (Z)-(3-(5-chloro-2-(2,2,2-trifluoroethoxy)phenyl)-4-oxothiazolidin-2-ylidene)carbamate] | 50 to 100 | 50 to 100 |  |  |
| Cc1ccc(OCC(F)(F)F)c(N2C(=O)CS/C2=N\C(=O)OCCc2ccc(-c3ncn(-c4ccc(OC(F)(F)F)cc4)n3)cc2)c1 [A31, 4-(1-(4-(Trifluoromethoxy)phenyl)-1H-1,2,4-triazol-3-yl)phenethyl (Z)-(3-(5-methyl-2-(2,2,2-trifluoroethoxy)phenyl)-4-oxothiazolidin-2-ylidene)carbamate] | 50 to 100 | 50 to 100 |  |  |
| CCc1cccc(C)c1N1C(=O)CS/C1=N\C(=O)OCCc1ccc(-c2ncn(-c3ccc(OC(F)(F)F)cc3)n2)cc1 [A32, 4-(1-(4-(Trifluoromethoxy)phenyl)-1H-1,2,4-triazol-3-yl)phenethyl (Z)-(3-(2-ethyl-6-methylphenyl)-4-oxothiazolidin-2-ylidene)carbamate] | 0 | 50 to 100 |  |  |
| O=C(/N=C1\SCC(=O)N1c1cccc2c1CCCC2)OCCc1ccc(-c2ncn(-c3ccc(OC(F)(F)F)cc3)n2)cc1 [A33, 4-(1-(4-(Trifluoromethoxy)phenyl)-1H-1,2,4-triazol-3-yl)phenethyl (Z)-(4-oxo-3-(5,6,7,8-tetrahydronaphthalen-1-yl)thiazolidin-2-ylidene)carbamate] | 0 | 50 to 100 |  |  |
| CC(C)c1ccccc1N1C(=O)CS/C1=N\C(=O)OCC(F)c1ccc(-c2ncn(-c3ccc(OC(F)(F)F)cc3)n2)cc1 (stereo not shown) [A34, 2-Fluoro-2-(4-(1-(4-(trifluoromethoxy)phenyl)-1H-1,2,4-triazol-3-yl)phenyl)ethyl (Z)-(3-(2-isopropylphenyl)-4-oxothiazolidin-2-ylidene)carbamate] | 50 to 100 | 50 to 100 |  |  |
| CCC(C)Oc1ccc(C)cc1N1C(=O)CS/C1=N\C(=O)OCCc1ccc(-c2ncn(-c3ccc(OC(F)(F)F)cc3)n2)cc1 (stereo not shown) [A35, 4-(1-(4-(Trifluoromethoxy)phenyl)-1H-1,2,4-triazol-3-yl)phenethyl (Z)-(3-(2-(sec-butoxy)-5-methylphenyl)-4-oxothiazolidin-2-ylidene)carbamate] | 50 to 100 | 50 to 100 |  |  |
| O=C(/N=C1\SCC(=O)N1c1cc(Cl)ccc1OC(F)(F)F)OCC(F)c1ccc(-c2ncn(-c3ccc(OC(F)(F)F)cc3)n2)cc1 (stereo not shown) [A36, 2-Fluoro-2-(4-(1-(4-(trifluoromethoxy)phenyl)-1H-1,2,4-triazol-3-yl)phenyl)ethyl (Z)-(3-(5-chloro-2-(trifluoromethoxy)phenyl)-4-oxothiazolidin-2-ylidene)carbamate] | 50 to 100 | 50 to 100 |  |  |
| COc1ccc(N2C(=O)CS/C2=N\C(=O)OCC(F)c2ccc(-c3ncn(-c4ccc(OC(F)(F)F)cc4)n3)cc2)c(C)c1 (stereo not shown) [A37, 2-Fluoro-2-(4-(1-(4-(trifluoromethoxy)phenyl)-1H-1,2,4-triazol-3-yl)phenyl)ethyl (Z)-(3-(4-methoxy-2-methylphenyl)-4-oxothiazolidin-2-ylidene)carbamate] | 0 | 50 to 100 |  |  |
